Like-named read-outs stand apart in the source and are kept apart here.
System: Phakopsora pachyrhizi
Test: Asian soybean rust (PHAKPA) disease control on soybean seedlings
Format: in vivo
Conditions: High volume application at 25 ppm; for pest or weed control at 25 ppm: Phakopsora pachyrhizi
Protocol: Example C: Evaluation of Fungicidal Activity: Asian Soybean Rust (Phakopsora pachyrhizi; Bayer Code […]) Technical grades of materials were dissolved in acetone, which were then mixed with nine volumes of water containing 0.011% Tween 20. The fungicide solutions were applied onto soybean seedlings using an automated booth sprayer to run-off. All sprayed plants were allowed to air dry prior to further handling. Soybean plants (variety Williams 82) were grown in soil-less Metro mix, with one plant per pot. Two week old seedlings were used for testing. Plants were inoculated either 3 days prior to or 1 day after fungicide treatments. Plants were incubated for 24 h in a dark dew room at 22° C. and 100% relative humidity then transferred to a growth room at 23° C. for disease to develop. Disease severity was assessed on the sprayed leaves.

[1] = 24 h, 1 day protectant, read-out: PHAKPA 1DP (1 Day Protectant) disease control
[2] = 72 h, 3 day curative, read-out: PHAKPA 3DC (3 Day Curative) disease control

Structure (SMILES)	pest or weed control at 25 ppm [1] [%]	pest or weed control at 25 ppm [2] [%]	PHAKPA 1DP (1 Day Protectant) disease control (1 day protectant)	PHAKPA 3DC (3 Day Curative) disease control (3 day curative)
COc1ccnc(C(=O)N[C@@H](C)C(=O)O[C@H](C)[C@@H](C)c2ccccc2C)c1OC(=O)C(C)C [Example 225]	< 0	< 0		
COc1ccnc(C(=O)N[C@@H](C)C(=O)O[C@@H](C)[C@H](C)c2ccccc2C)c1OC(=O)C(C)C [Example 202]		< 0	B (≤80)	
COc1ccnc(C(=O)N[C@@H](C)C(=O)O[C@@H](C)[C@H](C)c2ccccc2C)c1OC(=O)C(C)C [Example 228]			D (≤0)	D (≤0)
COc1ccc([C@@H](C)[C@@H](C)OC(=O)[C@H](C)NC(=O)c2nccc(OC)c2OC(C)=O)c(C)c1 [Example 183]	> 80	< 80		
COc1ccnc(C(=O)N[C@H](C(=O)O[C@@H](C)[C@@H](C)c2ccc(F)cc2)C(C)C)c1OC(C)=O [Example 187]	> 80	< 0		
COc1ccnc(C(=O)N[C@H](C(=O)O[C@@H](C)[C@@H](C)c2ccc(F)cc2C)C(C)C)c1OC(=O)C(C)C [Example 207]			B (≤80)	D (≤0)
COc1ccc([C@@H](C)[C@@H](C)OC(=O)[C@@H](NC(=O)c2nccc(OC)c2OC(C)=O)C(C)C)c(C)c1 [Example 193]	< 80	< 0		
CCCC(=O)Oc1c(OC)ccnc1C(=O)N[C@@H](C)C(=O)O[C@@H](C)[C@@H](C)c1ccccc1C [Example 279]	> 80	> 80		
COc1ccc([C@@H](C)[C@@H](C)OC(=O)[C@@H](NC(=O)c2nccc(OC)c2OC(=O)C(C)C)C(C)C)c(C)c1 [Example 217]	< 80	< 0		
COc1ccnc(C(=O)N[C@H](C(=O)O[C@H](C)[C@H](C)c2ccc(F)cc2C)C(C)C)c1OC(=O)C(C)C [Example 214]	< 80	< 80		
COc1ccnc(C(=O)N[C@H](C(=O)O[C@@H](C)[C@H](C)c2ccc(F)cc2C)C(C)C)c1OC(C)=O [Example 185]	< 0	< 0		
COc1ccnc(C(=O)N[C@@H](C)C(=O)O[C@@H](C)[C@H](C)c2ccc(F)cc2C)c1OC(=O)C(C)C [Example 201]	< 80	< 80		
COc1ccnc(C(=O)N[C@@H](C)C(=O)O[C@@H](C)[C@@H](C)c2ccc(F)cc2)c1OC(=O)C(C)C [Example 203]			A (>80)	B (≤80)
COc1ccnc(C(=O)N[C@H](C(=O)O[C@@H](C)[C@@H](C)c2ccc(F)cc2C)C(C)C)c1OC(=O)C(C)C [Example 208]			A (>80)	D (≤0)
COc1ccc([C@H](C)[C@H](C)OC(=O)[C@@H](NC(=O)c2nccc(OC)c2OC(=O)C(C)C)C(C)C)c(C)c1 [Example 213]	> 80	< 80		
COc1ccnc(C(=O)N[C@H](C(=O)O[C@@H](C)[C@@H](C)c2ccc(F)cc2)C(C)C)c1OC(=O)C(C)C [Example 212]	< 80	< 80		
COc1ccnc(C(=O)N[C@H](C)C(=O)O[C@@H](C)[C@H](C)c2ccc(F)cc2C)c1OC(=O)C(C)C [Example 218]	< 0	< 80		
COc1ccnc(C(=O)N[C@H](C(=O)O[C@@H](C)[C@@H](C)c2ccc(F)cc2C)C(C)C)c1OC(=O)C(C)C [Example 209]			A (>80)	A (>80)
COc1ccnc(C(=O)N[C@H](C(=O)O[C@H](C)[C@H](C)c2ccc(F)cc2)C(C)C)c1OC(=O)C(C)C [Example 216]	< 80	< 0		
COc1ccc([C@H](C)[C@H](C)OC(=O)[C@@H](NC(=O)c2nccc(OC)c2OC(C)=O)C(C)C)c(C)c1 [Example 188]	> 80	< 80		
COc1ccnc(C(=O)N[C@@H](C)C(=O)O[C@H](C)[C@H](C)c2ccc(F)cc2)c1OC(C)=O [Example 182]	< 80	< 80		
COc1ccnc(C(=O)N[C@H](C)C(=O)O[C@H](C)[C@H](C)c2ccc(F)cc2C)c1OC(=O)C(C)C [Example 219]	< 0	< 0		
COc1ccnc(C(=O)NCC(=O)O[C@@H](C)[C@H](C)c2ccccc2C)c1OC(=O)C(C)C [Example 198]	< 0	< 0		
